This is an account of results in ChEMBL document CHEMBL1201862, “PubChem BioAssay data set” (2004).

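Test compounds were applied to cells in 96-well plates for 48 hours at 5 doses. GI50: concentration for 50% inhibition of growth.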 Calls of active or inactive are those of the source. Rule as the data show it: active = GI50 up to about 1.1 µM and inactive = higher.

Among the test systems are MOLT-4; SN12C; NCI-H226; T47D; A549; Malme-3M; UO-31; PC-3; CAKI-1; MCF7; HCT-15; CCRF-CEM; SW-620; RPMI-8226; U-251; NCI-H522; OVCAR-8; HT-29; HL-60; A498.
Holding throughout (assay): NCI-60 cell line screen, 48 h

Take `C1CCC(CC2CCC(NC3=NCCO3)CC2)CC1` (stereo not given): the GI50 in the experiment with MOLT-4 was 21.6 µM (inactive); with SN12C, 19.8 µM (inactive); with NCI-H226, 18.8 µM (inactive); in the experiment on T47D, 24.4 µM (inactive); with A549, 32.8 µM (inactive); in the experiment on Malme-3M, 15.8 µM (inactive). Also, the GI50 in the experiment with UO-31 was 19.9 µM (inactive); in the experiment on PC-3, 15.8 µM (inactive); in the experiment on CAKI-1 it was 24.5 µM (inactive); in the experiment on MCF7, 17.5 µM (inactive); in the experiment with HCT-15, 12.3 µM; with CCRF-CEM, 26.1 µM (inactive). In addition, the GI50 with SW-620 is 21.3 µM (inactive); in the experiment with RPMI-8226 it was 26.1 µM (inactive); in the experiment with U-251, 18 µM (inactive); in the experiment on NCI-H522 it was 22.2 µM (inactive); in the experiment on OVCAR-8, 17.1 µM (inactive); in the experiment on HT-29, 3.93 µM (inactive). Moreover, the GI50 in the experiment with HL-60 is 17.9 µM (inactive); in the experiment with A498, 26 µM (inactive).

For `O=C(O)CN1CCNCCN(CC(=O)O)CC1`, the GI50 was 4.81 µM (inactive) with MOLT-4; > 100 µM (inactive) in the experiment with SN12C; 9.93 µM (inactive) in the experiment on NCI-H226; > 100 µM (inactive) in the experiment with T47D; 14.8 µM (inactive) in the experiment on A549; 2.35 µM (inactive) in the experiment on Malme-3M. Also, the GI50 is 10.2 µM (inactive) with UO-31; 18.1 µM (inactive) in the experiment with PC-3; > 100 µM (inactive) in the experiment with CAKI-1; 3.73 µM (inactive) in the experiment on MCF7; 3.79 µM in the experiment on HCT-15; 5.47 µM (inactive) in the experiment on CCRF-CEM. Further, the GI50 with SW-620 is 3.4 µM (inactive); with RPMI-8226 it was 7.23 µM (inactive); in the experiment with U-251, 28.2 µM (inactive); in the experiment with NCI-H522, 3.28 µM (inactive); in the experiment with OVCAR-8, 2.63 µM (inactive); in the experiment with HT-29, 2.38 µM (inactive). Moreover, the figures for the GI50 in the experiment with HL-60 and in the experiment on A498 were 3.08 µM (inactive) and 3.42 µM (inactive), respectively.

On to `C=CCOC1=C(OC(C)=O)C(=O)OC1C1COC(C)(C)O1` (stereo not given), for which the GI50 was 18.4 µM (inactive) in the experiment on MOLT-4; > 42.8 µM (inactive) with SN12C; 61.1 µM (inactive) in the experiment on NCI-H226; 23.4 µM (inactive) in the experiment on T47D; > 73.5 µM (inactive) with A549; 21.8 µM (inactive) with Malme-3M. Further, the GI50 was 28.1 µM (inactive) in the experiment on UO-31; > 57.3 µM (inactive) in the experiment on PC-3; 37.7 µM (inactive) with CAKI-1; 28.2 µM (inactive) in the experiment with MCF7; 19.5 µM in the experiment on HCT-15; 21.4 µM (inactive) with CCRF-CEM. Besides, the GI50 in the experiment with SW-620 was 25.6 µM (inactive); in the experiment on RPMI-8226 it was 31.8 µM (inactive); in the experiment with U-251 it was 42.5 µM (inactive); in the experiment with NCI-H522, 17.5 µM (inactive); in the experiment on OVCAR-8, 28.6 µM (inactive); in the experiment on HT-29 it was 30.1 µM (inactive). For the same compound, the results for the GI50 with HL-60 and with A498 were 18.5 µM (inactive) and > 89.5 µM (inactive), respectively.

As for `O=C1/C(=C/c2ccco2)N=C2Sc3c([nH]cnc3=O)N12`, the GI50 in the experiment with MOLT-4, in the experiment on SN12C, in the experiment on NCI-H226, with T47D, in the experiment with A549 and with Malme-3M was > 100 µM (inactive) throughout. In addition, the GI50 in the experiment with UO-31 is > 100 µM (inactive); in the experiment with PC-3, > 100 µM (inactive); with CAKI-1 it was > 100 µM (inactive); in the experiment with MCF7, > 100 µM (inactive); in the experiment with HCT-15, greater than 100 µM; in the experiment with CCRF-CEM, > 100 µM (inactive). Besides, the GI50 with SW-620, with RPMI-8226, with U-251, with NCI-H522, in the experiment with OVCAR-8 and in the experiment with HT-29 was > 100 µM (inactive) throughout. In addition, the GI50 in the experiment with HL-60 and in the experiment on A498 was > 100 µM (inactive) throughout.

As to `Cc1cccc(/N=N/c2ccc(O)c(CN(C)C)c2)c1`, the GI50 with MOLT-4 is 20 µM (inactive); with SN12C it was 62.4 µM (inactive); in the experiment with NCI-H226, 30.9 µM (inactive); in the experiment on T47D, 11.5 µM (inactive); in the experiment with A549, 32.4 µM (inactive); with Malme-3M, 10 µM (inactive). In addition, the GI50 with UO-31 is 7.35 µM (inactive); in the experiment with PC-3, 36.4 µM (inactive); in the experiment with CAKI-1 it was 20.7 µM (inactive); in the experiment on MCF7, 39.1 µM (inactive); in the experiment with HCT-15, 11.2 µM; in the experiment on CCRF-CEM it was 0.0753 µM (active). In addition, the GI50 was 18.2 µM (inactive) in the experiment with SW-620; 32 µM (inactive) in the experiment with RPMI-8226; 45.9 µM (inactive) in the experiment with U-251; 10.5 µM (inactive) with NCI-H522; 21.3 µM (inactive) in the experiment on OVCAR-8; 17.5 µM (inactive) with HT-29. Further, the GI50 is 23.4 µM (inactive) in the experiment on HL-60 and 18.1 µM (inactive) in the experiment with A498.

As for `Oc1cc(-n2cccn2)c(O)cc1-n1cccn1`, the GI50 in the experiment with MOLT-4 is 9.55 µM (inactive); in the experiment on SN12C it was 19.3 µM (inactive); in the experiment on NCI-H226, 62.5 µM (inactive); in the experiment on T47D it was 22.3 µM (inactive); in the experiment on A549, > 86.9 µM (inactive); in the experiment on Malme-3M, 30.7 µM (inactive). For the same compound, the GI50 in the experiment with UO-31 is 23.8 µM (inactive); in the experiment on PC-3, 21.6 µM (inactive); in the experiment on CAKI-1, 23.6 µM (inactive); in the experiment with MCF7, 19.1 µM (inactive); in the experiment on HCT-15, 28.8 µM; in the experiment with CCRF-CEM, 7.11 µM (inactive). Besides, the GI50 was 19.1 µM (inactive) in the experiment on SW-620; 15.2 µM (inactive) in the experiment on RPMI-8226; 52.4 µM (inactive) in the experiment with U-251; 11.5 µM (inactive) with NCI-H522; 26.2 µM (inactive) in the experiment with OVCAR-8; 23 µM (inactive) in the experiment with HT-29. In addition, the GI50 in the experiment with HL-60 is 6.43 µM (inactive); in the experiment with A498, > 72.8 µM (inactive).

As to `Cc1c(-c2cnccn2)ssc1=S` [OLTIPRAZ], the GI50 in the experiment on MOLT-4 was > 96.4 µM (inactive); in the experiment on SN12C, > 100 µM (inactive); in the experiment on NCI-H226, 94.2 µM (inactive); in the experiment with T47D it was 67.6 µM (inactive); in the experiment on A549, 98.9 µM (inactive); with Malme-3M, > 100 µM (inactive). Besides, the GI50 is 40 µM (inactive) in the experiment with UO-31; > 100 µM (inactive) in the experiment on PC-3; > 100 µM (inactive) in the experiment on CAKI-1; > 100 µM (inactive) with MCF7; 62.8 µM in the experiment with HCT-15; 60.3 µM (inactive) in the experiment with CCRF-CEM. For the same compound, the GI50 in the experiment on SW-620 was > 100 µM (inactive); with RPMI-8226, > 100 µM (inactive); with U-251 it was 46 µM (inactive); in the experiment on NCI-H522, 34.8 µM (inactive); in the experiment on OVCAR-8, 72.4 µM (inactive); with HT-29, > 100 µM (inactive). The GI50 in the experiment on HL-60 was 61.9 µM (inactive); in the experiment with A498, 34.8 µM (inactive).
